Reference: publication PMC8287944, “5-Fluorouracil blocks quorum-sensing of biofilm-embedded methicillin-resistant Staphylococcus aureus in mice” (Nucleic Acids Research, 2021)
Like-named read-outs stand apart in the source and are kept apart here. Bridge positions count the residues as written; N and C are the ends. Square brackets hold non-standard residues; d marks the D form. Peptide text beside a SMILES is read from it. I, II: the chains in the order shown. * marks the point of attachment. Quinoxaline2carbonyl = O=C(c1cnc2ccccc2n1)*; NMeV = CN[CH](C(=O)O)C(C)C; NMeC = CN[CH](CS)C(=O)O

Experiments:
[1] = test system: AI-2 production by HEK-293AI2 cells expressing MTAN and LuxS; assay: HEK-293AI2 / V. harveyi (MM32) AI-2 detection platform (AI-2 production by engineered human cells); assay type: cell-based, human cells; MTAN and LuxS derived from E. coli; conditions: for IC50: HEK-293AI2 cells exposed 24 h, AI-2 in supernatant read by V. harveyi MM32 bioluminescence
Experimental: LuxS (MF688636) and MTAN (MF688635) transgenes derived from E. coli were codon-optimized for stable expression in mammalian cells. For the generation of double stable HEK-293-derived cell line HEK-293AI2 transgenic for simultaneous constitutive PhEFIα-driven MTAN and PhCMV-driven LuxS-eYFP expression, 250,000 cells were first transfected with 2000 ng of pFS168 (PhEFIα-MTAN-pA) and selected in culture medium containing 20 μg/ml blasticidin (cat. no. ant-bl-1; InvivoGen, San Diego, CA, USA) for two weeks. […] After 17 days of selection in medium containing 200 μg/ml (w/v) zeocin (cat. no. ant-zn-1; Invivogen, San Diego, CA, USA) and 20 μg/ml blasticidin, resistant monoclonal cells (HEK-293sFS26cx) were obtained by limiting dilution cloning and screened for AI-2 activity in their supernatants. […] The cell line was regularly tested for the absence of mycoplasma.
20 μl of HEK-293AI2 cells (10^4 cells per well) were resuspended in 20 μl Dulbecco's modified Eagle's medium (DMEM; Thermo Fisher, Basel, Switzerland, low glucose, without phenol red, cat. no. 11880–028) supplemented with 4 mM L-glutamine (Thermo Fisher, Basel, Switzerland, cat. no. 25030-024), 30 μg/ml kanamycin and 1% FCS and seeded into a poly-L-lysine-coated Black Greiner clear-bottom 384-well plate (cat. no. 3845; Corning, New York, USA) using a Multidrop Combi Reagent Dispenser (cat. no. 5840300; Thermo Fisher, Basel, Switzerland). Cells were incubated for 20 h and then 20 nL of individual compounds (stock solution in 5 mM in DMSO) or controls (stock solutions of novobiocin, 10 mM in DMSO; staurosporin, 20 mM in DMSO) were transferred with Echo 550 liquid handler (Labcyte, San Jose, CA, USA) into the plate.
Compound-treated cells were cultivated for 24 hours and the cell culture supernatants (10 μl) were transferred to dry black polystyrene 384-well plates (Corning, New York, USA, cat. no. 3571). The AI-2 activity was quantified by adding 40 μl per 384-well of V. harveyi MM32 AI-2 reporter strain, diluted 1:500 in AB-Medium from a stationary overnight culture grown in Luria Marine (LM)-medium containing 20 g of NaCl, 10 g of Bacto Tryptone (Difco Laboratories), and 5 g of yeast extract (BBL) ([25]). Plates were sealed with BREATHseal™ (cat. no. 7.676 050; Greiner Bio-One, Frickenhausen, Germany) and incubated for 4 h at 30°C and 200 rpm on a Multitron Pro shaker (Infors, Bottmingen, Switzerland). Bioluminescence was measured on an Envision 2104 Multilabel plate reader (Perkin Elmer, Waltham, USA) with 1 s integration time. […] The initial hit inclusion criteria were a toxicity score of less than 50% and an AI-2 activity reduction below the average of all compound activity three times the standard deviation (-49.39% of activity).
(§1) Figure 2. Cell-based primary screen for AI-2 biosynthesis inhibitors. (A) Detailed assay protocol of the primary screen using engineered mammalian cells to identify inhibitors of quorum sensing. […] Aliquots of 10 μl of culture supernatants were transferred to black-bottomed assay plates and mixed with 40 μl of V. harveyi MM32 (AI-2 biosensor). AI-2-induced bioluminescence was measured 4 h later and normalized against the controls. In a secondary screen, the dose-response relationships of hit compounds are analyzed. To simultaneously assess effects on cell viability, compound-treated cells were supplemented with PrestoBlue and incubated for 1 h prior to resorufin fluorescence quantification. (B) Z’-evaluation of the AI-2 inhibitor assay.

HEK-293AI2 cells = assay type: cell-based, human
Experimental: To monitor viable cells with active metabolism, we employed a fast resazurin assay. […] To calculate the relative cell viability, the fluorescence of DMSO-treated cells was set to 100%.
as §1, with “assay. […] Bioactivity and viability are calculated as percentages, based on the positive control value (taken as 100%) and negative control value (taken as 0%). […] Data points in (C) represent means of biological duplicates.” for “assay.”

V. harveyi (BB170) = assay: V. harveyi BB170 growth (OD600 after 24 h); assay type: cell-based, Vibrio harveyi; parameters: TC50 (decrease of V. harveyi growth): unit not given beside the values; conditions: V. harveyi BB170, OD600 after 24 h
Experimental: The test strain V. harveyi BB170 was grown overnight in Luria Marine (LM)-medium ([25]). The culture was 1:500 diluted in AB-medium (0.3 M NaCl, 10 mM potassium phosphate, 1 mM L-arginine, […], 1% glycerol) the next day, and then challenged with various chemical compounds. After 5 h of shaking at 200 rpm at 30°C, the bioluminescence of BB170 was quantified on a GENios Pro plate reader (Tecan, Männedorf, Switzerland).
Figure 3. Bioactivity of hit candidates against Vibrio harveyi. Effect on bacterial growth. V. harveyi (BB170) was grown in the presence of individual compounds (A–H) for 5 h and the bioluminescence (green circles) was quantified. After a total of 24 h, bacterial growth (+) was evaluated by measuring the optical density (OD600). The gray translucent background in (C) represents the narrow range within which the compound reduces bioluminescence without affecting growth.

MTAN = conditions: cited from earlier work; for Ki: read-out: Ki (reported, in vitro)

Compound	IC50 [1]	Viability of Ctrl (%) (HEK-293AI2 cells; human, 5 µM)	IC50 ([1]; Homo sapiens, 24 h)	further results
CCCC[C@H](CN(O)C=O)C(=O)N1CCC[C@H]1C(=O)Nc1cc(CC)ccn1 [SCHEMBL14510040]	1090 nM			
Nc1nc(Cl)nc2c1ncn2[C@@H]1O[C@H](CO)[C@@H](O)[C@@H]1F [Clofarabine]		15.42%	160 nM	TC50 (decrease of V. harveyi growth) (V. harveyi (BB170)): 4.4 × 10^−7
CNC1=NC(=O)[C@H]([C@@H](C)c2c[nH]c3ccccc23)O1 [CHEMBL283366]	180 nM			
O=CN(O)C[C@@H](CC1CCCC1)C(=O)N1C[C@H](F)C[C@H]1C(=O)Nc1cnccn1 [SCHEMBL12230405]	150 nM			
COc1cc(C)c(Cc2cnc(N)nc2N)cc1OC [Ormetoprim]			3660 nM	
CO[C@H]1/C=C/O[C@@]2(C)Oc3c(C)c(O)c4c(c3C2=O)C2=NC3(CCN(CC(C)C)CC3)NC2=C(NC(=O)/C(C)=C\C=C\[C@H](C)[C@H](O)[C@@H](C)[C@@H](O)[C@@H](C)[C@H](OC(C)=O)[C@@H]1C)C4=O [Rifabutin]		–5.07%	2190 nM	
CC(=O)NC[C@H]1CN(c2ccc(N3CCOCC3)c(F)c2)C(=O)O1 [Linezolid]		0.38%	4160 nM	
CC[C@H]1OC(=O)[C@H](C)[C@@H](O[C@H]2C[C@@](C)(OC)[C@@H](O)[C@H](C)O2)[C@H](C)[C@@H](O[C@@H]2O[C@H](C)C[C@H](N(C)C)[C@H]2O)[C@](C)(O)C[C@@H](C)C(=O)[C@H](C)[C@@H](O)[C@]1(C)O.O=C(O)[C@H](O)[C@H](O)[C@@H](O)[C@H](O)[C@H](O)CO [Erythrohycin Gluceptate]	1310 nM			
CC[C@H]1OC(=O)[C@H](C)[C@@H](O[C@H]2C[C@@](C)(OC)[C@@H](O)[C@H](C)O2)[C@H](C)[C@@H](O[C@@H]2O[C@H](C)C[C@H](N(C)C)[C@H]2O)[C@](C)(O)C[C@@H](C)C(=O)[C@H](C)[C@@H](O)[C@H]1C [Erythromycin B]	1420 nM			Viability of Ctrl (%) (HEK-293AI2 cells): 4.99%
Nc1ncnc2c([C@@H]3O[C@H](CO)[C@@H](O)[C@H]3O)[nH]nc12 [Formycin]			2110 nM	Ki (MTAN; competitive MTAN inhibition): 10000 nM; IC50 (MTAN; competitive MTAN inhibition, read-out: Reported IC50 (in vitro)): 57000 nM
C[C@@H]1C/C=C2\SC[C@@H](NC(=O)c3coc(n3)C[C@H](O)C[C@H](O)/C=C/C=C/CNC2=O)C(=O)O1 [Griseoviridin]	4550 nM			
CCCCC[C@H](CC(=O)NO)C(=O)N[C@H](C(=O)N1CCC[C@H]1CO)C(C)C [Actinonin]		–11.93%	1000 nM	
Levomycin	370 nM			
CO/N=C(\C(=O)N[C@@H]1C(=O)N2C(C(=O)O)=C(CSc3nc(=O)c(=O)[nH]n3C)CS[C@H]12)c1csc(N)n1 [Ceftriaxone]		–4.78%	3490 nM	
CO[C@H]1/C=C/O[C@@]2(C)Oc3c(C)c(O)c4c(O)c(c(/C=N/N5CCN(C6CCCC6)CC5)c(O)c4c3C2=O)NC(=O)/C(C)=C\C=C\[C@H](C)[C@H](O)[C@@H](C)[C@@H](O)[C@@H](C)[C@H](OC(C)=O)[C@@H]1C [Rifapentine]		–0.98%	2530 nM	
O=c1[nH]c(=O)n([C@H]2C[C@H](O)[C@@H](CO)O2)cc1F [Floxuridine]		–22.28%	770 nM	
CC1NC(=O)C(NC(=O)c2cnc3ccccc3n2)COC(=O)C(C(C)C)N(C)C(=O)C2CSSCC(C(=O)N(C)C(C(C)C)C(=O)OCC(NC(=O)c3cnc4ccccc4n3)C(=O)NC(C)C(=O)N2C)N(C)C1=O (centres unmarked) [Triostin A] (I: Quinoxaline2carbonyl-SA[NMeC][NMeV] / II: Quinoxaline2carbonyl-SA[NMeC][NMeV]; ester I:1-II:C, I:C-II:1; disulfide I:3-II:3; configuration not given here)	2140 nM			
C[C@H]1O[C@@H](n2cc(F)c(=O)[nH]c2=O)[C@H](O)[C@@H]1O [Doxifluridine]		–0.0725%	240 nM	
NC(=O)c1ncn([C@@H]2O[C@H](CO)[C@@H](O)[C@H]2O)n1 [Ribavirin]			190 nM	
Erythromycin	1930 nM			
CSC[C@H]1CN(Cc2c[nH]c3c(N)ncnc23)C[C@@H]1O [MT-DADMe-ImmA]	170 nM			Ki (MTAN; MTAN inhibition): 0.002 nM
CO[C@@H]1[C@@H](OC(N)=O)[C@@H](O)[C@H](Oc2ccc3c(O)c(NC(=O)c4ccc(O)c(CC=C(C)C)c4)c(=O)oc3c2C)OC1(C)C [novobiocin]				Bioluminescence of V. harveyi (MM32) ([1]; assay validation, active control novobiocin 10 μM): completely shut down the bioluminescence
O=CN(O)C[C@@H](CC1CCC1)C(=O)N1C[C@H](F)C[C@H]1C(=O)Nc1cccnn1 [SCHEMBL12230407]	630 nM			
C/C=C\C=C\[C@@H]1O[C@](O)([C@H](CC)C(=O)NC/C=C/C=C(\C)[C@@H](OC)[C@H](C)[C@@H]2O[C@H](/C=C/C=C/C=C(\C)C(=O)c3c(O)cc[nH]c3=O)[C@H](O)[C@@H]2O)[C@H](O)[C@H](O)C1(C)C [Mocimycin]	1370 nM			
O=CN(O)C[C@@H](CC1CCCC1)C(=O)N1C[C@H](F)C[C@H]1C(=O)Nc1cccnn1 [SCHEMBL12230409]	640 nM			
